In brackets after ≈: the same amount, converted by molar mass. Where two headings read alike, the source gives them in different places.
Columns and labels:
[1] = design: species or system human; settings: in vivo
[2] = test system: H. influenzae; assay: microbe, parasite or virus in culture; format: cell-based; settings: Haemophilus influenzae
[3] = test system: M. catarrhalis; assay: microbe, parasite or virus in culture; format: cell-based; settings: Moraxella catarrhalis
[4] = in vivo
[5] = test system: S. pneumoniae; assay: microbe, parasite or virus in culture; format: cell-based; settings: Streptococcus pneumoniae
[6] = test system: H. influenzae; assay: microbe, parasite or virus in culture; format: cell-based; settings: Haemophilus influenzae; remark: listed apart in the source
[7] = test system: M. catarrhalis; assay: microbe, parasite or virus in culture; format: cell-based
[8] = test system: S. aureus MSSA; assay: microbe, parasite or virus in culture; format: cell-based; settings: Staphylococcus aureus
[9] = test system: S. aureus MRSA; assay: microbe, parasite or virus in culture; format: cell-based; settings: Staphylococcus aureus
[10] = test system: K. pneumoniae; assay: microbe, parasite or virus in culture; format: cell-based; settings: Klebsiella pneumoniae
[11] = test system: S. pneumoniae (Sp); assay: microbe, parasite or virus in culture; format: cell-based; settings: Streptococcus pneumoniae
[12] = test system: Porphyromonas gingivalis; assay: microbe, parasite or virus in culture; format: cell-based, P. gingivalis; settings: read-out: MIC of mutants
[13] = test system: intracellular P. gingivalis in KB cells; format: cell-based
[14] = test system: S. pneumoniae
[15] = 90% CI 86 to 97%
[16] = test system: MSSA
[17] = test system: MSSA; assay: microbe, parasite or virus in culture; settings: Staphylococcus aureus
[18] = test system: MRSA; assay: microbe, parasite or virus in culture; settings: Staphylococcus aureus
[19] = test system: Streptococcus pneumoniae; assay: microbe, parasite or virus in culture; format: cell-based, S. pneumoniae
[20] = test system: S. aureus (SA); assay: microbe, parasite or virus in culture; format: cell-based; settings: Staphylococcus aureus
[21] = test system: Coag neg staphylococci (CoNS); assay: organism not typed; format: cell-based
[22] = test system: Enterococcus spp. (ESP); assay: microbe, parasite or virus in culture; format: cell-based
[23] = test system: S pneumoniae (SPN); assay: microbe, parasite or virus in culture; format: cell-based
[24] = test system: Viridans group streptococci (VGS); assay: organism not typed; format: cell-based
[25] = test system: Enterobacteriaceae (ENT); assay: organism not typed; format: cell-based
[26] = test system: E. coli ESBL; assay: microbe, parasite or virus in culture; format: cell-based
[27] = test system: Klebsiella spp. ESBL; assay: microbe, parasite or virus in culture; format: cell-based
[28] = test system: all resistant organism subsets; format: cell-based
[29] = test system: S. aureus and/or streptococci; settings: 30 of 35 pts
[30] = test system: S. pneumoniae (SPN)
[31] = test system: H. influenzae (Hi)
[32] = test system: Enterobacter spp. (ENT)
[33] = test system: beta-streptococci (BST); assay: organism not typed
[34] = test system: S. aureus and/or streptococcal baseline pathogens; assay: microbe, parasite or virus in culture; settings: Staphylococcus aureus, read-out: MIC values
[35] = test system: S. pneumoniae (SPN); assay: microbe, parasite or virus in culture; settings: Streptococcus pneumoniae
[36] = test system: H. influenzae (Hi); assay: microbe, parasite or virus in culture; settings: Haemophilus influenzae
[37] = test system: M. catarrhalis (MCAT); assay: microbe, parasite or virus in culture; settings: Moraxella catarrhalis
[38] = test system: S. aureus (SA); assay: microbe, parasite or virus in culture; settings: Staphylococcus aureus
[39] = test system: Klebsiella spp. (KSP); assay: microbe, parasite or virus in culture
[40] = test system: Enterobacter spp. (ENT); assay: microbe, parasite or virus in culture
[41] = test system: Acinetobacter spp. (AC); assay: microbe, parasite or virus in culture
[42] = test system: E. coli (EC); assay: microbe, parasite or virus in culture; settings: Escherichia coli
[43] = test system: Serratia spp. (SER); assay: microbe, parasite or virus in culture
[44] = test system: P. aeruginosa (PSA); assay: microbe, parasite or virus in culture; settings: Pseudomonas aeruginosa

With `C[C@@H](O)[C@H]1C(=O)N2C(C(=O)O)=C(S[C@@H]3CN[C@H](C(=O)Nc4cccc(C(=O)O)c4)C3)[C@H](C)[C@H]12` [ETP] the “Adjusted LOS” value [1] was 11.9.
With `COc1c(N2CCNC(C)C2)c(F)cc2c(=O)c(C(=O)O)cn(C3CC3)c12` (centres unmarked) [GFX, gatifloxacin] the MIC50 [2] was ≤ 0.03 µg/mL and the MIC50 [3] was ≤ 0.03 µg/mL.
In the case of `C=CC[C@@H]1/C=C(\C)C[C@H](C)C[C@H](OC)[C@H]2O[C@@](O)(C(=O)C(=O)N3CCCC[C@H]3C(=O)O[C@H](/C(C)=C/[C@@H]3CC[C@@H](O)[C@H](OC)C3)[C@H](C)[C@@H](O)CC1=O)[C@H](C)C[C@@H]2OC` [Tacrolimus, tacrolimus], the “concomitant drug bioavailability (AUC %) with POS vs alone” value [4] is reported as 458%.
With `COc1c(N2C[C@@H]3CCCN[C@@H]3C2)c(F)cc2c(=O)c(C(=O)O)cn(C3CC3)c12` [moxifloxacin] the MIC90 [5] was 0.19 µg/mL (≈ 0.473 µM), the MIC90 [6] was 0.125 µg/mL (≈ 0.311 µM) and the “susceptible (%)” value [7] was 100%. The MIC90 ([7]; Moraxella catarrhalis) was 0.125 µg/mL (≈ 0.311 µM), the MIC90 [8] was 1 µg/mL (≈ 2.49 µM) and the MIC90 [9] was 8 µg/mL (≈ 19.9 µM). The MIC90 [10] was 0.75 µg/mL (≈ 1.87 µM), the MIC90 [11] was 0.25 µg/mL (≈ 0.623 µM) and the MIC [12] was > 32 µg/mL. For the same compound, the “concentration killing all intracellular P. gingivalis” value [13] was 100 fold MIC, the “%I” value ([14]; 2002 (n = 103)) was 3% and the “%R” value ([14]; 2002 (n = 103)) was 1%. For the same compound, the “%S” value ([14]; 2002 (n = 103)) was 96%, the “%I” value ([14]; 2003 (n = 137)) was 0% and the “%R” value ([14]; 2003 (n = 137)) was 1.5%. The “%S” value ([14]; 2003 (n = 137)) was 98.5%, the “%I” value ([14]; 2004 (n = 110)) was 0% and the “%R” value ([14]; 2004 (n = 110)) was 0%. For the same compound, the “%S” value ([14]; 2004 (n = 110)) was 100%, the “AUC point estimate B/A” value [15] was 91% and the “AUC point estimate C/A” value [15] was 91%. For the same compound, the “more active than ciprofloxacin” value [16] was 4 fold, the MIC50 [17] was 0.25 µg/mL (≈ 0.623 µM) and the MIC90 [18] was ≥ 16 µg/mL.
`CC[C@H]1OC(=O)[C@H](C)C(=O)[C@H](C)[C@@H](O[C@@H]2O[C@H](C)C[C@H](N(C)C)[C@H]2O)[C@](C)(OC)C[C@@H](C)C(=O)[C@H](C)[C@H]2N(CCCCn3cnc(-c4cccnc4)c3)C(=O)O[C@]12C` [telithromycin] gave an MIC [19] of 4 µg/mL (≈ 4.93 µM).
In the case of `CN(C)c1cc(NC(=O)CNC(C)(C)C)c(O)c2c1C[C@H]1C[C@H]3[C@H](N(C)C)C(O)=C(C(N)=O)C(=O)[C@@]3(O)C(O)=C1C2=O` [tigecycline], the MIC50 [20] is reported as 0.25 µg/mL (≈ 0.427 µM), the MIC90 [20] is reported as 0.5 µg/mL (≈ 0.854 µM) and the MIC50 [21] is reported as ≤ 0.12 µg/mL. The MIC90 [21] was 0.5 µg/mL (≈ 0.854 µM), the MIC50 ([22]; Enterococcus) was ≤ 0.12 µg/mL and the MIC90 ([22]; Enterococcus) was 0.25 µg/mL (≈ 0.427 µM). For the same compound, the “MIC 50%” value ([22]; Van B (95)) was ≤ 0.12 mg/L, the “MIC 90%” value ([22]; Van B (95)) was 0.25 mg/L (≈ 0.427 µM) and the “% inhibited at ≤ 2 mg/L” value ([23]; CIP-R (171)) was 100%. For the same compound, the “MIC 50%” value ([23]; CIP-R (171)) was ≤ 0.12 mg/L, the MIC50 ([23]; Streptococcus pneumoniae) was ≤ 0.12 µg/mL and the MIC90 ([23]; Streptococcus pneumoniae, CIP-R (171)) was ≤ 0.12 µg/mL. The MIC90 ([23]; Streptococcus pneumoniae, TET R (733)) was ≤ 0.12 µg/mL, the MIC90 ([23]; Streptococcus pneumoniae, […]) was 0.12 µg/mL (≈ 0.205 µM) and the “% inhibited at ≤ 2 mg/L” value ([23]; TET R (733)) was >99%. For the same compound, the “% inhibited at ≤ 4 mg/L” value ([23]; TET R (733)) was >99%, the “MIC 50%” value ([23]; TET R (733)) was ≤ 0.12 mg/L and the “% inhibited at ≤ 2 mg/L” value ([23]; […]) was 100%. For the same compound, the MIC50 [24] was ≤ 0.12 µg/mL, the MIC90 [24] was 0.12 µg/mL (≈ 0.205 µM) and the “% inhibited at ≤ 4 mg/L” value [25] was 98%. For the same compound, the MIC50 [25] was 0.5 µg/mL (≈ 0.854 µM), the “MIC 50%” value [25] was 0.25 mg/L (≈ 0.427 µM) and the MIC90 [25] was 4 µg/mL (≈ 6.83 µM). For the same compound, the “MIC 90%” value [25] was 2 mg/L (≈ 3.41 µM), the “% inhibited at ≤ 2 mg/L” value ([26]; (279)) was >99% and the “% inhibited at ≤ 4 mg/L” value ([26]; (279)) was 100%. For the same compound, the MIC50 ([26]; Escherichia coli) was 0.25 µg/mL (≈ 0.427 µM), the MIC90 ([26]; Escherichia coli) was 0.5 µg/mL (≈ 0.854 µM) and the “% inhibited at ≤ 4 mg/L” value ([27]; (317)) was 100%. For the same compound, the MIC50 ([27]; Klebsiella) was 0.5 µg/mL (≈ 0.854 µM), the MIC90 ([27]; Klebsiella) was 2 µg/mL (≈ 3.41 µM) and the “Total % Inhibited at ≤ 2 mg/L” value [28] was 97%. For the same compound, the “Total % Inhibited at ≤ 4 mg/L” value [28] was >99%, the clinical cure [29] was 85.7% and the MIC90 ([30]; NP) was ≤0.12/≤0.12 mg/L. For the same compound, the MIC50 ([30]; NP (117)) was ≤0.12/≤0.12 mg/L, the MIC90 ([31]; NP) was 1 mg/L (≈ 1.71 µM) and the MIC50 ([31]; NP (16)) was 0.5 mg/L (≈ 0.854 µM). The “% ≤2 mg/L” value [32] was 98%, the “% ≤4 mg/L” value [32] was 100% and the MIC50 [33] was ≤ 0.12 µg/mL. The MIC90 [33] was ≤ 0.12 µg/mL, the MIC [34] was 0.06 to 0.5 µg/mL (≈ 0.102 to 0.854 µM) and the MIC50 [35] was ≤ 0.12 µg/mL. The MIC90 [35] was ≤ 0.12 µg/mL, the MIC50 [36] was 0.5 µg/mL (≈ 0.854 µM) and the MIC90 [36] was 1 µg/mL (≈ 1.71 µM). For the same compound, the MIC90 [37] was 0.25 µg/mL (≈ 0.427 µM), the MIC50 ([37]; CARTI (600)) was ≤ 0.12 µg/mL and the MIC50 ([37]; NP (7)) was 0.25 µg/mL (≈ 0.427 µM). It also gave an MIC50 [38] of 0.25 µg/mL (≈ 0.427 µM), an MIC90 [38] of 0.5 µg/mL (≈ 0.854 µM) and an MIC50 [39] of 0.5 µg/mL (≈ 0.854 µM). For the same compound, the MIC90 [39] was 1 µg/mL (≈ 1.71 µM), the MIC ([39]; read-out: MICs) was ≤ 2 µg/mL and the MIC50 [40] was 0.5 µg/mL (≈ 0.854 µM). The MIC90 [40] was 2 µg/mL (≈ 3.41 µM), the MIC50 [41] was 1 µg/mL (≈ 1.71 µM) and the MIC90 [41] was 4 µg/mL (≈ 6.83 µM). For the same compound, the MIC50 [42] was 0.25 µg/mL (≈ 0.427 µM), the MIC90 [42] was 0.5 µg/mL (≈ 0.854 µM) and the MIC ([42]; read-out: MICs) was ≤ 2 µg/mL. The MIC50 [43] was 1 µg/mL (≈ 1.71 µM), the MIC90 [43] was 4 µg/mL (≈ 6.83 µM) and the MIC90 [44] was 16 µg/mL (≈ 27.3 µM).
